The numbers were not newly measured in patent US20040105900A1, “Extracts derived from Pueraria mirifica, Butea superba and/or Mucuna collettii and extraction thereof” (CHEIL JEDANG CORPORATION, priority 1999, published 2004), which cites them from elsewhere.

For the series, the system named is skin of menopausal females. Particulars: after 6 months of application to the skin.

As to estrogen, the “improvement in the depth of wrinkles” value was 60%.
